Results from patent US20260217708A1, “FUSED BENZAZEPINE DERIVATIVES FOR USE IN THE TREATMENT OF CANCER AND EPILEPSY” (UCB BIOPHARMA SRL, priority 2023, published 2026).

Key:
system Xc^− [1] = target: T1, system Xc^− (Homo sapiens, UniProt Q9UPY5); assay: [^14C]L-Cystine uptake assay; type: cell-based; parameters: endogenous in cells; host or cells: H4 cells; conditions: H4 cells, sodium-free HEPES buffer, 0.5 μM L-[14C]Cystine and 4.5 μM L-Cystine, 1 hour at 37° C.; read-out: pIC50 [^14C] L-Cystine uptake assay (converted)
T1 sequence (Q9UPY5 1-501): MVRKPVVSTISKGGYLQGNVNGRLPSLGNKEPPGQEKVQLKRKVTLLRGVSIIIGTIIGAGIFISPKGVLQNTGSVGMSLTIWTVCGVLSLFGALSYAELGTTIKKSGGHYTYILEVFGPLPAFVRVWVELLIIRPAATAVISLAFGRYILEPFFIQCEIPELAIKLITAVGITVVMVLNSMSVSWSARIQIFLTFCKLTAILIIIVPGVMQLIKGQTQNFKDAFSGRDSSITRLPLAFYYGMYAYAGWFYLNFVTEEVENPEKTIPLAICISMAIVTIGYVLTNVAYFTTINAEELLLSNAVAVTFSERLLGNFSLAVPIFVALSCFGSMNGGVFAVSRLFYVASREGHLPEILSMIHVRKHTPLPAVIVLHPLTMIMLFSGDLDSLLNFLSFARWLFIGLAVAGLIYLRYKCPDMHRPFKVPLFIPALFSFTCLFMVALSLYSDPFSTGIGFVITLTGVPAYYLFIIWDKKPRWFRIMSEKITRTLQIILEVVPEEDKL
T1 sequence (P08195 1-529 partner): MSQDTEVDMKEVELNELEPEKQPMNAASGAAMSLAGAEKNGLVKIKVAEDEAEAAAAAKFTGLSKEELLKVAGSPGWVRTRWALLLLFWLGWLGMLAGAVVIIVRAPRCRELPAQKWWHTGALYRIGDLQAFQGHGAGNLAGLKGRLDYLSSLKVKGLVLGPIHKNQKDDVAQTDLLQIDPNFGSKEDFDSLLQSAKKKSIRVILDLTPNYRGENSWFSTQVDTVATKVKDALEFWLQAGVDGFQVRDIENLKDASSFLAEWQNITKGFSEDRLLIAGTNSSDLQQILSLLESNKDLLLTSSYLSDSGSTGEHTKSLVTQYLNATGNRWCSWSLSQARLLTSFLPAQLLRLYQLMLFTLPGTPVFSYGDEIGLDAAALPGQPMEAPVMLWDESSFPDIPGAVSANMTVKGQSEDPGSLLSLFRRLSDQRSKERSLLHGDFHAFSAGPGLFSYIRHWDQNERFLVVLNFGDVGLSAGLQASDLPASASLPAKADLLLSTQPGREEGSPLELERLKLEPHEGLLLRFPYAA
Summary of the method: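 H4 cells at 5×10^4 cells/well in sodium-free HEPES buffer were preincubated 15 min with compounds (1% DMSO). Uptake of 0.5 μM [14C]L-cystine plus 4.5 μM unlabelled L-cystine ran 1 hour at 37° C on scintillating plates. IC50 was set between 1% DMSO and 50 μM Erastin controls and expressed as pIC50.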

system Xc^− [2] = target: T1, system Xc^−; assay: Cystine-induced glutamate release assay; type: cell-based; parameters: endogenous in cells; host or cells: H4 cells; conditions: H4 cells, sodium-free HEPES buffer, 50 μM L-Cystine, 2 hours, Amplex Red glutamate readout; read-out: pIC50 Cystine-induced glutamate release assay (converted)
Summary of the method: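 H4 cells in sodium-free HEPES buffer (pH 7.4), 2 days after plating; glutamate release induced with 50 μM L-cystine plus compound (1% DMSO), 2 h at 37 °C. Supernatant glutamate measured by Amplex Red fluorescence; IC50/pIC50 derived between 1% DMSO and 50 μM erastin controls.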

| IC50 (system Xc^− [1]) [nM] | IC50 (system Xc^− [2]) [nM] | Compound |
| --- | --- | --- |
| < 15.8 | < 15.8 | CC1C(=O)N(CC(=O)Nc2ccc(C(F)F)cc2)c2cc(N3CC(C)(F)C3)nc(F)c2-c2cccnc21 (single isomer, unassigned) [#288, N-[4-(difluoromethyl)phenyl]-2-[3-fluoro-5-(3-fluoro-3-methyl-azetidin-1-yl)-10-methyl-9-oxo-4,8,12-triazatricyclo[9.4.0.0^2,7]pentadeca-1(15),2,4,6,11,13-hexaen-8-yl]acetamide] |
| < 15.8 | 15.8 to 39.8 | C[C@H]1C(=O)N(CC(=O)Nc2ccc(C(F)F)cc2)c2cc(N3CC4C(C3)C4(F)F)nc(F)c2-c2cccnc21 (single isomer, unassigned) [#289, 2-[5-(6,6-difluoro-3-azabicyclo[3.1.0]hexan-3-yl)-3-fluoro-10-methyl-9-oxo-4,8,12-triazatricyclo[9.4.0.0^2,7]pentadeca-1(11),2(7),3,5,12,14-hexaen-8-yl]-N-[4-(difluoromethyl)phenyl]acetamide] |
| 15.8 to 39.8 | < 15.8 | CC1C(=O)N(CC(=O)Nc2ccc(C(F)F)cc2)c2cc(N3CC(F)(F)C3)nc(F)c2-c2ccc(F)cc21 (single isomer, unassigned) [#291, 2-[3-(3,3-difluoroazetidin-1-yl)-1,9-difluoro-7-methyl-6-oxo-7H-pyrido[4,3-d][3]benzazepin-5-yl]-N-[4-(difluoromethyl)phenyl]acetamide] |
| 15.8 to 39.8 | 39.8 to 100 | CC1C(=O)N(CC(=O)Nc2ccc(Cl)c(F)c2)c2cc(N3CC(F)(F)C3)ncc2-c2cccnc21 (single isomer, unassigned) [#293, N-(4-chloro-3-fluoro-phenyl)-2-[5-(3,3-difluoroazetidin-1-yl)-10-methyl-9-oxo-4,8,12-triazatricyclo[9.4.0.0^2,7]pentadeca-1(15),2,4,6,11,13-hexaen-8-yl]acetamide] |
| < 15.8 | < 15.8 | COc1nccc2c1-c1cccnc1C(C)C(=O)N2CC(=O)Nc1ccc(Cl)c(F)c1 (single isomer, unassigned) [#297, N-(4-chloro-3-fluoro-phenyl)-2-[3-methoxy-10-methyl-9-oxo-4,8,12-triazatricyclo[9.4.0.0^2,7]pentadeca-1(15),2(7),3,5,11,13-hexaen-8-yl]acetamide] |
| < 15.8 | < 15.8 | COc1nccc2c1-c1cccnc1C(C)C(=O)N2CC(=O)Nc1ccc(C(F)F)cc1 (single isomer, unassigned) [#298, N-[4-(difluoromethyl)phenyl]-2-[3-methoxy-10-methyl-9-oxo-4,8,12-triazatricyclo[9.4.0.0^2,7]pentadeca-1(15),2(7),3,5,11,13-hexaen-8-yl]acetamide] |
| < 15.8 | < 15.8 | COc1cc2c(c(C)n1)-c1cccnc1C(C)C(=O)N2CC(=O)Nc1ccc(C(F)F)cc1 (single isomer, unassigned) [#299, N-[4-(difluoromethyl)phenyl]-2-[5-methoxy-3,10-dimethyl-9-oxo-4,8,12-triazatricyclo[9.4.0.0^2,7]pentadeca-1(15),2(7),3,5,11,13-hexaen-8-yl]acetamide] |
| < 15.8 | < 15.8 | COc1cc2c(c(C)n1)-c1cccnc1C(C)C(=O)N2CC(=O)Nc1ccc(Cl)c(F)c1 (single isomer, unassigned) [#300, N-(4-chloro-3-fluoro-phenyl)-2-[5-methoxy-3,10-dimethyl-9-oxo-4,8,12-triazatricyclo[9.4.0.0^2,7]pentadeca-1(15),2(7),3,5,11,13-hexaen-8-yl]acetamide] |
| 39.8 to 100 | 39.8 to 100 | Cc1cc2c(c(C(F)F)n1)-c1cccnc1C(C)C(=O)N2CC(=O)Nc1ccc(C(F)F)cc1 (single isomer, unassigned) [#301, 2-[3-(difluoromethyl)-5,10-dimethyl-9-oxo-4,8,12-triazatricyclo[9.4.0.0^2,7]pentadeca-1(11),2(7),3,5,12,14-hexaen-8-yl]-N-[4-(difluoromethyl)phenyl]acetamide] |
| 15.8 to 39.8 | 39.8 to 100 | Cc1cc2c(c(C(F)F)n1)-c1cccnc1C(C)C(=O)N2CC(=O)Nc1ccc(Cl)c(F)c1 (single isomer, unassigned) [#302, N-(4-chloro-3-fluoro-phenyl)-2-[3-(difluoromethyl)-5,10-dimethyl-9-oxo-4,8,12-triazatricyclo[9.4.0.0^2,7]pentadeca-1(15),2,4,6,11,13-hexaen-8-yl]acetamide] |
| 15.8 to 39.8 | < 15.8 | Cc1cc2c(c(F)n1)-c1ncc(F)cc1C(C)C(=O)N2CC(=O)Nc1ccc(Cl)c(F)c1 (single isomer, unassigned) [#303, N-(4-chloro-3-fluoro-phenyl)-2-[5,15-difluoro-8,13-dimethyl-9-oxo-3,10,14-triazatricyclo[9.4.0.0^2,7]pentadeca-1(15),2,4,6,11,13-hexaen-10-yl]acetamide] |
| 15.8 to 39.8 | 15.8 to 39.8 | Cc1cc2c(c(F)n1)-c1ncc(F)cc1C(C)C(=O)N2CC(=O)Nc1ccc(C(F)F)cc1 (single isomer, unassigned) [#304, 2-[5,15-difluoro-8,13-dimethyl-9-oxo-3,10,14-triazatricyclo[9.4.0.0^2,7]pentadeca-1(15),2,4,6,11,13-hexaen-10-yl]-N-[4-(difluoromethyl)phenyl]acetamide] |
| 15.8 to 39.8 | < 15.8 | CC1C(=O)N(CC(=O)Nc2ccc(Cl)c(F)c2)c2cc(C#N)ccc2-c2cc(F)cnc21 (single isomer, unassigned) [#307, N-(4-chloro-3-fluoro-phenyl)-2-[9-cyano-2-fluoro-5-methyl-6-oxo-5H-pyrido[2,3-d][1]benzazepin-7-yl]acetamid] |
| 15.8 to 39.8 | < 15.8 | CC1C(=O)N(CC(=O)Nc2ccc(C(F)F)cc2)c2cc(C#N)ccc2-c2cc(F)cnc21 (single isomer, unassigned) [#308, 2-[9-cyano-2-fluoro-5-methyl-6-oxo-5H-pyrido[2,3-d][1]benzazepin-7-yl]-N-[4-(difluoromethyl)phenyl]acetamide] |
| 15.8 to 39.8 | 15.8 to 39.8 | CC1C(=O)N(CC(=O)Nc2ccc(C(F)F)cc2)c2cc(C#N)cc(F)c2-c2cccnc21 (single isomer, unassigned) [#309, 2-[9-cyano-11-fluoro-5-methyl-6-oxo-5H-pyrido[2,3-d][1]benzazepin-7-yl]-N-[4-(difluoromethyl)phenyl]acetamide] |
| < 15.8 | < 15.8 | CC1C(=O)N(CC(=O)Nc2ccc(Cl)c(F)c2)c2cc(C#N)cc(F)c2-c2cccnc21 (single isomer, unassigned) [#310, N-(4-chloro-3-fluoro-phenyl)-2-[9-cyano-11-fluoro-5-methyl-6-oxo-5H-pyrido[2,3-d][1]benzazepin-7-yl]acetamide] |

| Compound | IC50 (system Xc^− [1]) [nM] | IC50 (system Xc^− [2]) [nM] |
| --- | --- | --- |
| CC1C(=O)N(CC(=O)Nc2ccc(C(F)F)cc2)c2cc(N3[C@@H]4CCC[C@H]3C4)nc(F)c2-c2cccnc21 (single isomer, unassigned) [#287, 2-[5-(6-azabicyclo[3.1.1]heptan-6-yl)-3-fluoro-10-methyl-9-oxo-4,8,12-triazatricyclo[9.4.0.0^2,7]pentadeca-1(15),2,4,6,11,13-hexaen-8-yl]-N-[4-(difluoromethyl)phenyl]acetamide] | < 15.8 | 15.8 to 39.8 |
| CC1C(=O)N(CC(=O)Nc2ccc(C(F)F)cc2)c2cc(N3C[C@H]4C[C@@H](C3)C4(F)F)nc(F)c2-c2cccnc21 (single isomer, unassigned) [#290, 2-[5-(6,6-difluoro-3-azabicyclo[3.1.1]heptan-3-yl)-3-fluoro-10-methyl-9-oxo-4,8,12-triazatricyclo[9.4.0.0^2,7]pentadeca-1(11),2(7),3,5,12,14-hexaen-8-yl]-N-[4-(difluoromethyl)phenyl]acetamide] | 15.8 to 39.8 | 39.8 to 100 |
